From patent US8119681B2, “2-[1-phenyl-5-hydroxy or methoxy-4alpha-methyl-hexahydrocyclopenta [ƒ]indazole-5-YL]ethyl phenyl derivatives as glucocorticoid receptor ligands” (Merck Sharp & Dohme Corp., priority 2006, dated 2012) come the findings set out here.

Assay [1] has as its target T1, human GR (Homo sapiens, UniProt P04150).
T1 sequence (P04150 1-777): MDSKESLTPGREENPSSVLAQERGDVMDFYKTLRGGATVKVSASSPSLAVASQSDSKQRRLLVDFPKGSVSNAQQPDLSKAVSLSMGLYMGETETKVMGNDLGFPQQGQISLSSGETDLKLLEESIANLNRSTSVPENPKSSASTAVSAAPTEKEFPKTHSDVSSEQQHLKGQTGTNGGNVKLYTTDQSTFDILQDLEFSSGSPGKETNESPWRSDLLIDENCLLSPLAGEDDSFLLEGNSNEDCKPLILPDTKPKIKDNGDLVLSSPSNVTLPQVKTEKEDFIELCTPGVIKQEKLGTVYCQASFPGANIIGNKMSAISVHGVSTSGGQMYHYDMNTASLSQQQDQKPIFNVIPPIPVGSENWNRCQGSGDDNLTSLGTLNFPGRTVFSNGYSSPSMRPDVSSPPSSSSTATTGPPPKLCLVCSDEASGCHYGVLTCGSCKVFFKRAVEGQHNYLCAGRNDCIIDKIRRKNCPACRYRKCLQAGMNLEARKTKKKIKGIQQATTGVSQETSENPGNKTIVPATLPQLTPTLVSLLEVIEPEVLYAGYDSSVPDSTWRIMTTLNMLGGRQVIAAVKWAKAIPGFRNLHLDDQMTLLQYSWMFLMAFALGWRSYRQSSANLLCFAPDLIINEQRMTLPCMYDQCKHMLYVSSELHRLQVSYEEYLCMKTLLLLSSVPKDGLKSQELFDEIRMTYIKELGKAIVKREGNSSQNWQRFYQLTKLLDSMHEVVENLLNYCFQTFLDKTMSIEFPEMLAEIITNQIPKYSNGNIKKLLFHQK
The assay is described as follows: Trans-Activation Modulation of Glucocorticoid Receptor (GRAMMER), MMTV-LUC reporter gene. It counts as cell-based. Set-up: endogenous in cells. The following applies: for Emax: A549; for EC50: A549 cells, IP = inflection point. An excerpt:
Trans-Activation Modulation of Glucocorticoid Receptor (GRAMMER)
This assay assesses the ability of test compounds to control transcription from the MMTV-LUC reporter gene in lung adenocarcinoma A549 cells or HeLa cells, a human […] cell line that naturally expresses the human GR. The assay measures induction of a modified MMTV LTR/promoter linked to the LUC reporter gene.
The routine transient assay consists of plating 7,000-25,000 cells/well of a white, clear-bottom 96-well plate. Alternatively, 384-well plates can be used at a cell concentration of 10,000/well. The media that the cells are plated in is “exponential growth medium” which consists of phenol red-free RPMI1640 containing 10% FBS, 4 mM L-glutamine, 20 mM HEPES, 10 ug/mL human insulin, and 20 ug/mL gentamicin. Incubator conditions are 37° C. and 5% CO2. The transfection is done in batch mode. The cells are trypsinized and counted to the right cell number in the proper amount of fresh media. It is then gently mixed with the FuGene6/DNA mix and plated onto the 96 or 384-well plate, all the wells receive 100 uL or 40 uL, respectively, of medium+lipid/DNA complex then incubated 37° C. overnight. The transfection cocktail consists of serum-free OptiMEM, FuGene6 reagent and DNA. The manufacturer's (Roche Biochemical) protocol for cocktail setup is as follows: The lipid to DNA ratio is approximately 2.5:1 and the incubation time is 20 min at room temperature. Sixteen to 24 hours after transfection, the cells are treated with dexamethasone to a final concentration of 10 nM as well as the compound of interest, such that final DMSO (vehicle) concentration is equal to or less than 1%. Each plate also contains samples that are treated with 10 nM dexamethasone alone, which is used as the 100% activity control. The cells are exposed to the compounds for 24 hours. After 24 hours, the cells are lysed by a Promega cell culture lysis buffer for approximately 30 min and then the luciferase activity in the extracts is assayed in the 96-well format luminometer. In 384-well format, Steady-Glo (Promega) or Steady-Lite (PerkinElmer) can be used by adding an equal volume of reagent to the media present in each well. Activity induced by 10 nM dexamethasone alone is set at 100% activity. Antagonist activity is calculated by determining the decrease in dexamethasone-induced activity in response to compound treatment relative to samples that were treated with dexamethasone alone. […] This transactivation assay can be performed in an agonist and antagonist mode to identify these different activities. […]

Assay [2] concerns the target T1, human GR. The assay is described as follows: Transrepression Assay (GITAR), TNFα-β-lactamase reporter gene in U937 cells. It counts as cell-based. Further details: U937 cells contain an endogenous glucocorticoid receptor (GR); endogenous in cells; host or cells: U937 cells stably transfected with the TNF-α promoter/β-lactamase reporter only. The following applies: for EC50: IP = inflection point; for GITAR > GRAMM % SEP: separation of GITAR Emax over GRAMMER Emax; for Emax: U-937. An outline of the steps: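 Reporter readout used CCF2-AM loading for 70–90 min at room temperature after overnight (~18 h, 37 °C) PMA (5 ng/ml final) and LPS (100 ng/ml final) stimulation of compound-treated (30–45 min) TNFα-β-lactamase U937 cells expressing native GR. Activity was normalised to 100 nM dexamethasone repression.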

[3] abbreviates: read-out: Transactiviation A549 Cells GRAMMER Emax (%).
Setting [4] is: Table 2, read-out: Transactiviation A549 Cells GRAMMER IP.
Setting [5] is: Table 2, U937 cells, read-out: Transactiviation U937 Cells GITAR IP.
The mark [6] stands for this setting: Table 2, U937 cells, activity repressed by 100 nM dexamethasone = 100%, read-out: Transactiviation U937 Cells GITAR Emax (%).
The mark [7] stands for this setting: read-out: Transactivation A549 Cells GRAMMER Emax (%).
Setting [8] is: Table 1, read-out: Transactivation A549 Cells GRAMMER IP.
Where [9] appears, read: Table 1, U937 cells, read-out: Transrepression U937 Cells GITAR IP.
The mark [10] stands for this setting: 100 nM dexamethasone = 100% activity, read-out: maximal activity in the transrepression assay.
Where [11] appears, read: Table 1, U937 cells, activity repressed by 100 nM dexamethasone = 100%, read-out: Transrepression U937 Cells GITAR Emax (%).

Consider `C[C@]12Cc3cnn(-c4ccc(F)cc4)c3C=C1CC[C@@]2(O)CCc1ccccc1Cl` [Example 40 WO 2004/075840 A2, reference compound], for which the values for the Emax in assay [1] (setting [3]) and in assay [2] (setting [6]) were 98% and 91%, respectively. In addition, the EC50 in assay [1] (setting [4]) was 162 nM; in assay [2] (setting [5]) it was 212 nM. Moreover, the “GITAR > GRAMM % SEP” value in assay [2] (Table 2) is recorded as −7%.
Consider `C[C@]12Cc3cnn(-c4ccc(F)cc4)c3C=C1CC[C@@]2(O)CCc1ccccc1C(=O)N1CCC1` [Example 40, (4αS,5R)-5-{2-[2-(azetidin-1-ylcarbonyl)phenyl]ethyl}-1-(4-fluorophenyl)-4α-methyl-1,4,4α,5,6,7-hexahydrocyclopenta[f]indazol-5-ol], for which the results for the Emax in assay [1] (setting [7]), in assay [2] (setting [10]) and in assay [2] (setting [11]) were 46%, 5 to 100% and 64%, respectively. The EC50 stood at 231 nM in assay [1] (setting [8]) and 246 nM in assay [2] (setting [9]). The “GITAR > GRAMM % SEP” value in assay [2] (Table 1) was 17%.
As for `C[C@]12Cc3cnn(-c4ccc(F)cc4)c3C=C1CCC[C@@]2(O)CCc1ccccc1Cl` [Example 41 WO 2004/075840 A2, reference compound], the figures for the Emax in assay [1] (setting [3]) and in assay [2] (setting [6]) were 92% and 88%, respectively. The EC50 stood at 123 nM in assay [1] (setting [4]) and 270 nM in assay [2] (setting [5]). The “GITAR > GRAMM % SEP” value in assay [2] (Table 2) is reported as −3%.
Turning to `COC(=O)C(C)(C)NC(=O)c1c(F)cccc1CC[C@]1(O)CCC2=Cc3c(cnn3-c3ccc(F)cc3)C[C@@]21C` [Example 41, methyl N-(2-fluoro-6-{2-[(4αS,5R)-1-(4-fluorophenyl)-5-hydroxy-4α-methyl-1,4,4α,5,6,7-hexahydrocyclopenta[f]indazol-5-yl]ethyl}benzoyl)-2-methylalaninate], the Emax was 18% in assay [1] (setting [7]), 5 to 100% in assay [2] (setting [10]) and 62% in assay [2] (setting [11]). For the same compound, the EC50 in assay [1] (setting [8]) came out at 46 nM; in assay [2] (setting [9]), 115 nM. In assay [2] (Table 1), the “GITAR > GRAMM % SEP” value is 44%.
In the case of `C[C@]12Cc3cnn(-c4ccccc4)c3C=C1CC[C@@]2(O)CCc1ccccc1C(=O)NC1CC1` [Example 42, N-cyclopropyl-2-{2-[(4αS,5R)-5-hydroxy-4α-methyl-1-phenyl-1,4,4α,5,6,7-hexahydrocyclopenta[f]indazol-5-yl]ethyl}benzamide], the results for the Emax in assay [1] (setting [7]), in assay [2] (setting [10]) and in assay [2] (setting [11]) were 51%, 5 to 100% and 64%, respectively. For the same compound, the EC50 in assay [1] (setting [8]) came to 74 nM; in assay [2] (setting [9]), 122 nM. The “GITAR > GRAMM % SEP” value in assay [2] (Table 1) is reported as 13%.
As to `C[C@]12Cc3cnn(-c4ccccc4)c3C=C1CC[C@@]2(O)CCc1ccccc1C(N)=O` [Example 43, 2-{2-[(4αS,5R)-5-hydroxy-4α-methyl-1-phenyl-1,4,4α,5,6,7-hexahydrocyclopenta[f]indazol-5-yl]ethyl}benzamide], the Emax in assay [1] (setting [7]) is 59%; in assay [2] (setting [10]), 5 to 100%; in assay [2] (setting [11]), 68%. The EC50 turned out to be 111 nM in assay [1] (setting [8]) and 98 nM in assay [2] (setting [9]). Also, the “GITAR > GRAMM % SEP” value in assay [2] (Table 1) is recorded as 9%.
As to `C=C(C)CNC(=O)c1c(F)cccc1CC[C@]1(O)CCC2=Cc3c(cnn3-c3ccc(F)cc3)C[C@@]21C` [Example 44, 2-fluoro-6-{2-[(4αS,5R)-1-(4-fluorophenyl)-5-hydroxy-4α-methyl-1,4,4α,5,6,7-hexahydrocyclopenta[f]indazol-5-yl]ethyl}-N-(2-methylprop-2-en-1-yl)benzamide], the Emax in assay [1] (setting [7]) was 24%; in assay [2] (setting [10]), 5 to 100%; in assay [2] (setting [11]), 67%. For the same compound, the EC50 in assay [1] (setting [8]) is 95 nM; in assay [2] (setting [9]) it was 119 nM. Moreover, the “GITAR > GRAMM % SEP” value in assay [2] (Table 1) is 43%.
Consider `C[C@H](CNC(=O)c1ccccc1CC[C@]1(O)CCC2=Cc3c(cnn3-c3ccc(F)cc3)C[C@@]21C)C(F)(F)F` [Example 45, 2-{2-[(4αS,5R)-1-(4-fluorophenyl)-5-hydroxy-4α-methyl-1,4,4α,5,6,7-hexahydrocyclopenta[f]indazol-5-yl]ethyl}-N-[(2R)-3,3,3-trifluoro-2-methylpropyl]benzamide], for which the Emax was 18% in assay [1] (setting [7]), 5 to 100% in assay [2] (setting [10]) and 70% in assay [2] (setting [11]). The figures for the EC50 in assay [1] (setting [8]) and in assay [2] (setting [9]) were 183 nM and 220 nM, respectively. Further, the “GITAR > GRAMM % SEP” value in assay [2] (Table 1) is 52%.
`C[C@]12Cc3cnn(-c4ccc(F)cc4)c3C=C1CC[C@@]2(O)CCc1ccc(F)cc1` [Example 46 WO 2004/075840 A2, reference compound]: the Emax in assay [1] (setting [3]) was 26%; in assay [2] (setting [6]), 71%. The EC50 in assay [1] (setting [4]) was determined as 571 nM; in assay [2] (setting [5]), 596 nM. In assay [2] (Table 2), the “GITAR > GRAMM % SEP” value came out at 44%.
As for `C[C@]12Cc3cnn(-c4ccc(F)cc4)c3C=C1CC[C@@]2(O)CCc1ccccc1C(=O)N1CCCCC1` [Example 46, (4αS,5R)-1-(4-fluorophenyl)-4α-methyl-5-{2-[2-(piperidin-1-ylcarbonyl)phenyl]ethyl}-1,4,4α,5,6,7-hexahydrocyclopenta[f]indazol-5-ol], the Emax in assay [1] (setting [7]) is 54%; in assay [2] (setting [10]) it was 5 to 100%; in assay [2] (setting [11]), 70%. For the same compound, the EC50 in assay [1] (setting [8]) turned out to be 176 nM; in assay [2] (setting [9]), 248 nM. Besides, the “GITAR > GRAMM % SEP” value in assay [2] (Table 1) was found to be 17%.
Consider `C[C@]12Cc3cnn(-c4ccc(F)cc4)c3C=C1CC[C@@]2(O)CCc1ccccc1C(=O)N1CCCC1` [Example 47, (4αS,5R)-1-(4-fluorophenyl)-4α-methyl-5-{2-[2-(pyrrolidin-1-ylcarbonyl)phenyl]ethyl}-1,4,4α,5,6,7-hexahydrocyclopenta[f]indazol-5-ol], for which the Emax is 59% in assay [1] (setting [7]), 5 to 100% in assay [2] (setting [10]) and 71% in assay [2] (setting [11]). For the same compound, the EC50 in assay [1] (setting [8]) was 196 nM; in assay [2] (setting [9]), 205 nM. In addition, the “GITAR > GRAMM % SEP” value in assay [2] (Table 1) was 12%.
